Reference: PMC5025651, “Reprofiled anthelmintics abate hypervirulent stationary-phase Clostridium difficile” (Scientific Reports, 2016)
≈ marks a conversion by molar mass, not a printed value. Read-outs that look alike come from different tables or passages of the source.

Assays:
16 C. difficile isolates = experiment: MIC by broth microdilution, summary over 16 C. difficile isolates; assay type: cell-based, Clostridium difficile; conditions: n = 2
[1] = system: C. difficile strain 4118 (CD4118, ATCC BAA-1870, ribotype 027); experiment: MIC by broth microdilution; assay type: cell-based, Clostridium difficile; conditions: Clostridioides difficile, ATCCBAA1870; BHIS broth, anaerobic, 20–24 h, n = 2; read-out: MIC C. difficile 4118
[2] = system: C. difficile isolate 20110869 (ribotype 001_072); experiment: MIC by broth microdilution; assay type: cell-based, Clostridium difficile; conditions: Clostridioides difficile; isolate 20110869, ribotype 001_072; duplicate; read-out: MIC
[3] = system: C. difficile isolate 20110742 (ribotype 002); experiment: MIC by broth microdilution; assay type: cell-based, Clostridium difficile; conditions: Clostridioides difficile; isolate 20110742, ribotype 002; duplicate; read-out: MIC
[4] = system: C. difficile isolate 20100584 (ribotype 014); experiment: MIC by broth microdilution; assay type: cell-based, Clostridium difficile; conditions: Clostridioides difficile; isolate 20100584, ribotype 014; duplicate; read-out: MIC
[5] = system: C. difficile isolate 20110960 (ribotype 017); experiment: MIC by broth microdilution; assay type: cell-based, Clostridium difficile; conditions: Clostridioides difficile; isolate 20110960, ribotype 017; duplicate; read-out: MIC
[6] = system: C. difficile isolate 20110740 (ribotype 018); experiment: MIC by broth microdilution; assay type: cell-based, Clostridium difficile; conditions: Clostridioides difficile; isolate 20110740, ribotype 018; duplicate; read-out: MIC
[7] = system: C. difficile isolate 20120016 (ribotype 019); experiment: MIC by broth microdilution; assay type: cell-based, Clostridium difficile; conditions: Clostridioides difficile; isolate 20120016, ribotype 019; duplicate; read-out: MIC
[8] = system: C. difficile isolate 20110566 (ribotype 020); experiment: MIC by broth microdilution; assay type: cell-based, Clostridium difficile; conditions: Clostridioides difficile; isolate 20110566, ribotype 020; duplicate; read-out: MIC
[9] = system: C. difficile isolate 20111163 (ribotype 024); experiment: MIC by broth microdilution; assay type: cell-based, Clostridium difficile; conditions: Clostridioides difficile; isolate 20111163, ribotype 024; duplicate; read-out: MIC
[10] = system: C. difficile isolate 20121412 (ribotype 047); experiment: MIC by broth microdilution; assay type: cell-based, Clostridium difficile; conditions: Clostridioides difficile; isolate 20121412, ribotype 047; duplicate; read-out: MIC
[11] = system: C. difficile isolate 20100422 (ribotype 054); experiment: MIC by broth microdilution; assay type: cell-based, Clostridium difficile; conditions: Clostridioides difficile; isolate 20100422, ribotype 054; duplicate; read-out: MIC
[12] = system: C. difficile isolate 20110986 (ribotype 078); experiment: MIC by broth microdilution; assay type: cell-based, Clostridium difficile; conditions: Clostridioides difficile; isolate 20110986, ribotype 078; duplicate; read-out: MIC
[13] = system: C. difficile isolate 20110973 (ribotype 106); experiment: MIC by broth microdilution; assay type: cell-based, Clostridium difficile; conditions: Clostridioides difficile; isolate 20110973, ribotype 106; duplicate; read-out: MIC
[14] = system: C. difficile isolate 20121190 (ribotype 126); experiment: MIC by broth microdilution; assay type: cell-based, Clostridium difficile; conditions: Clostridioides difficile; isolate 20121190, ribotype 126; duplicate; read-out: MIC
[15] = system: C. difficile isolate 20110961 (ribotype A12); experiment: MIC by broth microdilution; assay type: cell-based, Clostridium difficile; conditions: Clostridioides difficile; isolate 20110961, ribotype A12; duplicate; read-out: MIC
C. difficile strain 4118 = experiment: Minimum bactericidal concentration (MBC), logarithmic- and stationary-phase cells; assay type: cell-based, Clostridium difficile; conditions: Clostridioides difficile, 4118, 20–24 h, n = 2
Description: The procedure for MBC determination was adapted from that of Alam et al.[44]. Briefly, a single overnight colony of C. difficile strain 4118 (streaked onto blood agar plate) was suspended in BHIS and grown to OD600 ~ 0.4–0.5 (logarithmic phase) or for 24 h (stationary phase). In 96-well microtiter plates, cultures were added to two-fold serial dilutions of test compounds in BHIS and incubated for 20–24 h at 37 °C in an anaerobic chamber. […] MBC measurements were performed in duplicate.

[16] = system: B. breve Strain EX336960VC19; experiment: MIC by broth microdilution; assay type: cell-based; conditions: Bifidobacterium breve; B. breve EX336960VC19; LSM broth, anaerobic; duplicate; read-out: MIC
[17] = system: B. longum subsp. longum Strain 44B; experiment: MIC by broth microdilution; assay type: cell-based; conditions: Bifidobacterium longum; B. longum subsp. longum 44B; LSM broth, anaerobic; duplicate; read-out: MIC
[18] = system: C. clostridioforme ATCC 25537; experiment: MIC by broth microdilution; assay type: cell-based, Clostridium clostridioforme; conditions: Clostridium, ATCC25537; C. clostridioforme ATCC 25537; BHIS, anaerobic; duplicate; read-out: MIC
[19] = system: L. johnsonii Strain 135-1-CHN; experiment: MIC by broth microdilution; assay type: cell-based; conditions: Lactobacillus johnsonii, STRAIN1351CHN; L. johnsonii 135-1-CHN; CAMHB with 5% laked horse blood, ~48 h; duplicate; read-out: MIC
L. plantarum ATCC 8014 = experiment: MIC by broth microdilution; assay type: cell-based; conditions: Lactiplantibacillus plantarum, ATCC8014; L. plantarum ATCC 8014; CAMHB with 5% laked horse blood, ~48 h; duplicate; read-out: MIC
[20] = system: L. reuteri Strain CF48-3A; experiment: MIC by broth microdilution; assay type: cell-based, Lactobacillus reuteri; conditions: Limosilactobacillus reuteri; L. reuteri CF48-3A; CAMHB with 5% laked horse blood, ~48 h; duplicate; read-out: MIC
[21] = system: B. fragilis Strain CL05T00C42; experiment: MIC by broth microdilution; assay type: cell-based; conditions: Bacteroides fragilis; B. fragilis CL05T00C42; supplemented Brucella broth, anaerobic; duplicate; read-out: MIC
[22] = system: B. thetaiotaomicron ATCC 29148; experiment: microbe, parasite or virus in culture; assay type: cell-based; conditions: Bacteroides thetaiotaomicron, ATCC29148
P. distasonis ATCC 8503 = experiment: MIC by broth microdilution; assay type: cell-based; conditions: Parabacteroides distasonis, ATCC8503; P. distasonis ATCC 8503; supplemented Brucella broth, anaerobic; duplicate; read-out: MIC
P. nigrescens ATCC 33563 = experiment: MIC by broth microdilution; assay type: cell-based; conditions: Prevotella nigrescens, ATCC33563; P. nigrescens ATCC 33563; supplemented Brucella broth, anaerobic; duplicate; read-out: MIC
B. subtilis ATCC 6051 = experiment: MIC by broth microdilution; assay type: cell-based; conditions: Bacillus subtilis, ATCC6051; B. subtilis ATCC 6051; CAMHB, aerobic; duplicate; read-out: MIC
S. aureus RN4220 = experiment: MIC by broth microdilution; assay type: cell-based; conditions: Staphylococcus aureus, CAMHB, aerobic, duplicate
S. epidermidis 1457 = experiment: MIC by broth microdilution; assay type: cell-based; conditions: Staphylococcus epidermidis; S. epidermidis 1457; CAMHB, aerobic; duplicate; read-out: MIC
A. baumannii M2 = experiment: MIC by broth microdilution; assay type: cell-based; conditions: Acinetobacter baumannii; A. baumannii M2; CAMHB, aerobic; duplicate; read-out: MIC
P. aeruginosa PAO1 = experiment: MIC by broth microdilution; assay type: cell-based; conditions: Pseudomonas aeruginosa; P. aeruginosa PAO1; CAMHB, aerobic; duplicate; read-out: MIC
Hemolysis assay = assay type: cell-based; conditions: sheep, pH 7.4
Description: Sheep red blood cells (Innovative Research, Novi, MI, USA) were washed three times with PBS pH 7.4. A 3% cell suspension in PBS (100 μL) was added to test compounds in PBS (100 μL, to a final concentration of 32 μg/mL), and then incubated at 37 °C for 1 h. The plate was centrifuged at 500 × g for 10 min, and supernatants (100 μL) were transferred to a clean 96-well plate. Hemolysis was determined by measuring absorbance at 540 nm, with 1% Triton X-100 as the positive control and 0.5% DMSO in PBS as the negative control. Hemolysis assays were performed in triplicate.

With `Cc1cc(C(C#N)c2ccc(Cl)cc2)c(Cl)cc1NC(=O)c1cc(I)cc(I)c1O` (stereo not drawn) [Closantel] the MIC50 (16 C. difficile isolates; Clostridioides difficile, MIC at which 50% of the 16 isolates are inhibited, read-out: MIC50) was 0.25 µg/mL (≈ 0.377 µM), the MIC90 (16 C. difficile isolates; Clostridioides difficile, MIC at which 90% of the 16 isolates are inhibited, read-out: MIC90) was 0.25 µg/mL (≈ 0.377 µM) and the “MIC Range” value (16 C. difficile isolates; range over 16 C. difficile isolates) was 0.13 to 1 µg/mL. For the same compound, the MIC [1] was 0.25 µg/mL (≈ 0.377 µM), the MIC [2] was 1 µg/mL (≈ 1.51 µM) and the MIC [3] was 0.13 to 0.25 µg/mL (≈ 0.196 to 0.377 µM). For the same compound, the MIC [4] was 0.25 µg/mL (≈ 0.377 µM), the MIC [5] was 0.13 µg/mL (≈ 0.196 µM) and the MIC [6] was 0.25 µg/mL (≈ 0.377 µM). The MIC [7] was 0.25 µg/mL (≈ 0.377 µM), the MIC [8] was 0.25 µg/mL (≈ 0.377 µM) and the MIC [9] was 0.13 to 0.25 µg/mL (≈ 0.196 to 0.377 µM). For the same compound, the MIC [10] was 0.125 µg/mL (≈ 0.189 µM), the MIC [11] was 0.25 µg/mL (≈ 0.377 µM) and the MIC [12] was 0.25 µg/mL (≈ 0.377 µM). For the same compound, the MIC [13] was 0.25 µg/mL (≈ 0.377 µM), the MIC [14] was 0.25 µg/mL (≈ 0.377 µM) and the MIC [15] was 0.25 µg/mL (≈ 0.377 µM). The MBC (C. difficile strain 4118; minimum bactericidal concentration (≥3-log reduction) for logarithmic-phase cells, read-out: MBClog) was 2 µg/mL (≈ 3.02 µM), the MBC (C. difficile strain 4118; minimum bactericidal concentration (≥3-log reduction) for stationary-phase cells, read-out: MBCstat) was 4 µg/mL (≈ 6.03 µM) and the MIC [16] was over 32 µg/mL. For the same compound, the MIC [17] was 16 µg/mL (≈ 24.1 µM), the MIC [18] was 4 µg/mL (≈ 6.03 µM) and the MIC [19] was 32 µg/mL (≈ 48.3 µM). For the same compound, the MIC (L. plantarum ATCC 8014) was over 32 µg/mL, the MIC [20] was 32 µg/mL (≈ 48.3 µM) and the MIC [21] was over 32 µg/mL. It also gave an MIC [22] of over 32 µg/mL, an MIC (P. distasonis ATCC 8503) of 16 µg/mL (≈ 24.1 µM) and an MIC (P. nigrescens ATCC 33563) of 8 µg/mL (≈ 12.1 µM). It also gave an MIC (B. subtilis ATCC 6051) of at most 0.03 µg/mL, an MIC (S. aureus RN4220) of 0.25 µg/mL (≈ 0.377 µM) and an MIC (S. epidermidis 1457) of at most 0.03 µg/mL. The MIC (A. baumannii M2) was over 32 µg/mL, the MIC (P. aeruginosa PAO1) was over 32 µg/mL and the hemolysis at 1 h, 32 µg/mL (Hemolysis assay) was under 1%.
